Results on 23 molecules are retold here after ChEMBL document CHEMBL3991601, “The target landscape of clinical kinase drugs” (Science, 2017).

Counter-ions that a name gives are not always drawn. The source made the active and inactive calls.

Assay [1] has as its target T1, Inhibitor of nuclear factor kappa-B kinase subunit epsilon (Homo sapiens, UniProt Q14164).
T1 sequence (Q14164 whole entry): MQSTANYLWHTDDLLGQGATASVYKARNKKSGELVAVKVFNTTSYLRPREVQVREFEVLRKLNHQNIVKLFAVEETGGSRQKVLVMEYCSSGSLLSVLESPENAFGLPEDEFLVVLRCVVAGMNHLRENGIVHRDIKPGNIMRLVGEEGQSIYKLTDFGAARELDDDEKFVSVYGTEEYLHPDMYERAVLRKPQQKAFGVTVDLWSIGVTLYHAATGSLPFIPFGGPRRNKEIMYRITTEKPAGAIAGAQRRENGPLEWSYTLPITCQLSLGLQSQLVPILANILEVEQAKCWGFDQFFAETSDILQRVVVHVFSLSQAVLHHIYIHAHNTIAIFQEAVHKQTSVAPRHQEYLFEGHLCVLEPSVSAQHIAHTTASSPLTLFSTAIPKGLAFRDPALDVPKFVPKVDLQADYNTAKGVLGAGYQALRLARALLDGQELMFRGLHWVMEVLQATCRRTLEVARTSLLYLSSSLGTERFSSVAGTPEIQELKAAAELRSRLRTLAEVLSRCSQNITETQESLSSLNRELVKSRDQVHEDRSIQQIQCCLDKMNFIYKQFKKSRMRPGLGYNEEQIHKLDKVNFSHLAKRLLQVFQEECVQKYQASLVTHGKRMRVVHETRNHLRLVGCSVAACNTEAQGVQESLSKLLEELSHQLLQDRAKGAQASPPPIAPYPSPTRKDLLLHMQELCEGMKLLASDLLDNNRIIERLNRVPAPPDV

Assay [2] concerns the target T2, Serine/threonine-protein kinase Nek1 (Homo sapiens, UniProt Q96PY6).
T2 sequence (Q96PY6 whole entry): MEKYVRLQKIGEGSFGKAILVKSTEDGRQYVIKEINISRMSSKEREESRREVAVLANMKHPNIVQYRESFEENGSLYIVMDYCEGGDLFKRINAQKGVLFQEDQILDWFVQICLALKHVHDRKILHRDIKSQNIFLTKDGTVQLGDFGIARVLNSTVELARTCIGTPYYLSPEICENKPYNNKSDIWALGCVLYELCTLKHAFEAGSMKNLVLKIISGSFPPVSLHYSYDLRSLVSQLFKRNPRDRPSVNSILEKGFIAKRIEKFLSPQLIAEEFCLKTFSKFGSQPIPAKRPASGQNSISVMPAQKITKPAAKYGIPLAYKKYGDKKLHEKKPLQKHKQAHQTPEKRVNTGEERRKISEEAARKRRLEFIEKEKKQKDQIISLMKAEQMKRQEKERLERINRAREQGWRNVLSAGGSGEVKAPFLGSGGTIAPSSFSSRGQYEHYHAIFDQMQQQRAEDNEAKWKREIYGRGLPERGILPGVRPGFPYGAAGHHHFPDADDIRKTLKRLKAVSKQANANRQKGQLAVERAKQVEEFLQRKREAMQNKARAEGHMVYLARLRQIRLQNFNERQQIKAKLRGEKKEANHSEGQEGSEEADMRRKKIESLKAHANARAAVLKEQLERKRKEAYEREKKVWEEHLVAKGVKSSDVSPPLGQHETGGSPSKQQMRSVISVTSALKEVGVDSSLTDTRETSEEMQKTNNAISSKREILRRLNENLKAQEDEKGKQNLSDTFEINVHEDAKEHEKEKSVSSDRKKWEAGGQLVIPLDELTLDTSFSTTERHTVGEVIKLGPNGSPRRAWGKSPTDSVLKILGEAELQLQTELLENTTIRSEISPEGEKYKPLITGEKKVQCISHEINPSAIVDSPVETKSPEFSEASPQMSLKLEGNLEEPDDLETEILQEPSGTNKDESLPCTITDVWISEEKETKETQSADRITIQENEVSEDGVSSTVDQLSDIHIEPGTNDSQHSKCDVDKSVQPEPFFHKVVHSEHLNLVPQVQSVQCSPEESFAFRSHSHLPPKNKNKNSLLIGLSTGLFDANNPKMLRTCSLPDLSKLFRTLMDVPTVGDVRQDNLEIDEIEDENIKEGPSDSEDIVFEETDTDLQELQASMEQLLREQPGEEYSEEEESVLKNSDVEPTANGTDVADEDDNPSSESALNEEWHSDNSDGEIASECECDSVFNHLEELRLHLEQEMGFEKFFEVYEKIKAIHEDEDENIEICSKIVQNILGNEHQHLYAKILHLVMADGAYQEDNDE

For assay [3], the target named is T3, Glycogen phosphorylase, liver form (Homo sapiens, UniProt P06737).
T3 sequence (P06737 whole entry): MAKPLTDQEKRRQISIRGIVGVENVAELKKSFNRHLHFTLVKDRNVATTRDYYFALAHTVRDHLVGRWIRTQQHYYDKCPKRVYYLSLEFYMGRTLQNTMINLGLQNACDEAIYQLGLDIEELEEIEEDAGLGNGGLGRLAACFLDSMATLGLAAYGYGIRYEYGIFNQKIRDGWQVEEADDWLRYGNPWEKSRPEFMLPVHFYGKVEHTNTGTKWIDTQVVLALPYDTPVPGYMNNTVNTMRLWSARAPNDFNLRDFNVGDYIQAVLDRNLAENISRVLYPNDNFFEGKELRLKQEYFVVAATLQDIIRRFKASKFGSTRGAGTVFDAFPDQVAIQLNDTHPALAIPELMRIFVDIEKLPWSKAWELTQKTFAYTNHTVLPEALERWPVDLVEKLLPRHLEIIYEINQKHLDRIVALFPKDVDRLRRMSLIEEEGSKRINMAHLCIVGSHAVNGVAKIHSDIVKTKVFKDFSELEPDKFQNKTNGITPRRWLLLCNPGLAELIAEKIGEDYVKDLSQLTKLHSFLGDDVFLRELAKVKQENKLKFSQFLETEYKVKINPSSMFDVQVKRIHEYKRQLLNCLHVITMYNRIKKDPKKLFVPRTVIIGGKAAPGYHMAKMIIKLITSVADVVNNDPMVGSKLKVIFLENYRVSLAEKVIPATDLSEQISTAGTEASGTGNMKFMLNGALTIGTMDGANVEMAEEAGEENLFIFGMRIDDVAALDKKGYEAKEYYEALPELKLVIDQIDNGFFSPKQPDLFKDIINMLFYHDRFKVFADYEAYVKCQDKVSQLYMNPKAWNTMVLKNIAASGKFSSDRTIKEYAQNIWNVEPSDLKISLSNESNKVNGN
It counts as subcellular, K-562, COLO 205, SK-N-BE(2) and MV-4-11, Cell lysate. The settings on record: read-out: Kd apparent.
Also: in the data inactive means no Kd found up to 30 µM.

With `CCn1c(C(=O)N(C2CC2)C2CC2)cc2c3c(ncn3C)c(Nc3cc(C)n(C)n3)nc21` [BMS-911543], the Kd in assay [1], in assay [2] and in assay [3] was > 30 µM (inactive) in each case.

In the case of `COc1cc2ncnc(Oc3cccc(NC(=O)Nc4cc(C(C)(C)C(F)(F)F)on4)c3)c2cc1OC` [CEP-32496], the Kd in assay [1], in assay [2] and in assay [3] was > 30 µM (inactive) throughout.

On to `Cc1cc(Nc2ncc(Cl)c(Nc3ccccc3S(=O)(=O)C(C)C)n2)c(OC(C)C)cc1C1CCNCC1` [CERITINIB], for which the Kd in assay [1], in assay [2] and in assay [3] was > 30 µM (inactive) in each case.

Regarding `COc1c(OCCCN2CCOCC2)ccc2c1N=C(NC(=O)c1cnc(N)nc1)N1CCN=C21` [COPANLISIB], the Kd in assay [1], in assay [2] and in assay [3] was > 30 µM (inactive) each time.

For `COCC(=O)NC/C=C/c1ccc2ncnc(Nc3ccc(Oc4ccc(C)nc4)c(C)c3)c2c1` [CP-724714], the Kd in assay [1], in assay [2] and in assay [3] was > 30 µM (inactive) in each case.

Consider `C#Cc1cccc(Nc2ncnc3cc(OC)c(OCCCCCCC(=O)NO)cc23)c1` [CUDC-101], for which the Kd in assay [1], in assay [2] and in assay [3] was > 30 µM (inactive) throughout.

Take `CCS(=O)(=O)N1CCN(c2ccc(Nc3ncc(C(N)=O)c(NC4CC4)n3)cc2)CC1` [Cerdulatinib Hydrochloride]: the Kd is 1.29 µM (active) in assay [1], > 30 µM (inactive) in assay [2] and > 30 µM (inactive) in assay [3].

Consider `Cc1nc2cc(-n3ncc(C(=O)c4cc5ccccc5[nH]4)c3N)ccc2[nH]1` [FGFR INHIBITOR DEBIO 1347], for which the Kd in assay [1], in assay [2] and in assay [3] was > 30 µM (inactive) throughout.

As for `O=C(Nc1nc2cccc(-c3ccc(CN4CCS(=O)(=O)CC4)cc3)n2n1)C1CC1` [FILGOTINIB], the Kd in assay [1], in assay [2] and in assay [3] was > 30 µM (inactive) in each case.

For the molecule `Cc1cccc(-c2nn3c(c2-c2ccnc4ccc(C(N)=O)cc24)CCC3)n1` [GALUNISERTIB], the Kd in assay [1], in assay [2] and in assay [3] was > 30 µM (inactive) throughout.

As for `COc1ccc(S(=O)(=O)N(C(C)=O)c2ccccc2/C=C/c2cc[n+]([O-])cc2)cc1` [HMN-214], the Kd in assay [1], in assay [2] and in assay [3] was > 30 µM (inactive) throughout.

In the case of `O=C(Nc1cc(C(F)(F)F)cc(C(F)(F)F)c1)c1cc(Cl)ccc1O` [IMD-0354], the Kd in assay [1], in assay [2] and in assay [3] was > 30 µM (inactive) each time.

In the case of `CNC(=O)c1cccc2cc(Oc3ccnc4cc(OCC5(N)CC5)c(OC)cc34)ccc12` [LUCITANIB], the Kd in assay [1], in assay [2] and in assay [3] was > 30 µM (inactive) throughout.

In the case of `CNC(=O)c1nn(C)c2c1C(C)(C)Cc1cnc(Nc3ccc(N4CCN(C)CC4)cc3)nc1-2` [MILCICLIB], the Kd in assay [1] was 2.97 µM (active); in assay [2], > 30 µM (inactive); in assay [3], > 30 µM (inactive).

With `NC1(c2ccc(-c3nc4ccn5c(=O)[nH]nc5c4cc3-c3ccccc3)cc2)CCC1` [MK-2206], the Kd in assay [1], in assay [2] and in assay [3] was > 30 µM (inactive) throughout.

As for `CN(C[C@@H]1COCCO1)S(=O)(=O)Nc1ccc2ccc3ncc(-c4cnn(C)c4)cc3c(=O)c2c1` [MK-2461], the Kd in assay [1], in assay [2] and in assay [3] was > 30 µM (inactive) each time.

Consider `Cn1cc(-c2cnc3ccc4ccc(CS(=O)(=O)NCc5ccccn5)cc4c(=O)c3c2)cn1` [MK-8033], for which the Kd in assay [1], in assay [2] and in assay [3] was > 30 µM (inactive) in each case.

On to `FC(F)(F)c1ccc(/C=C/c2nc(COc3ccc(CCCCn4ccnn4)cc3)co2)cc1` [MUBRITINIB], for which the Kd in assay [1], in assay [2] and in assay [3] was > 30 µM (inactive) each time.

Regarding `COc1ncc(-c2ccc3nccc(-c4ccnnc4)c3c2)cc1NS(=O)(=O)c1ccc(F)cc1F` [OMIPALISIB], the Kd in assay [1], in assay [2] and in assay [3] was > 30 µM (inactive) in each case.

`CCCCCCCCCCCCCCCCCCOP(=O)([O-])OC1CC[N+](C)(C)CC1` [PERIFOSINE]: the Kd in assay [1], in assay [2] and in assay [3] was > 30 µM (inactive) throughout.

Turning to `Cc1nc(Nc2n[nH]c3c2CN(C(=O)N[C@H](CN(C)C)c2ccccc2)C3(C)C)c2sccc2n1` [PF-03758309], the Kd is 0.658 µM (active) in assay [1], > 30 µM (inactive) in assay [2] and > 30 µM (inactive) in assay [3].

Turning to `Cc1cnc(NC(=O)Nc2cc(Br)c(C)cc2OC[C@@H]2CNCCO2)cn1` [RABUSERTIB], the Kd in assay [1], in assay [2] and in assay [3] was > 30 µM (inactive) in each case.

Consider `CNC(=O)c1cc(Oc2ccc(NC(=O)Nc3cc(C(C)(C)C)nn3-c3ccc4ncccc4c3)c(F)c2)ccn1` [REBASTINIB], for which the Kd in assay [1], in assay [2] and in assay [3] was > 30 µM (inactive) each time.
